# Reference: paper PMC9945734 (BMC Medicine, 2023)
# Tested on: PC-3-KQ and PC-3-KR cells
# Assay: RNA-sequencing and differential gene expression
# Assay type: cell-based, human
smiles,measurement,setting,value
CC(=O)Oc1ccccc1C(=O)Nc1ncc([N+](=O)[O-])s1 [Nitazoxanide],SERPINA5 Change (KQ-Control vs KQ-NTZ),"RNA-Seq, PC-3-KQ cells",DOWN
same,SERPINA5 logFC (KQ-Control vs KQ-NTZ),"RNA-Seq, PC-3-KQ cells",-0.8689
same,SERPINB3 Change (KQ-Control vs KQ-NTZ),"RNA-Seq, PC-3-KQ cells",DOWN
same,SERPINB3 logFC (KQ-Control vs KQ-NTZ),"RNA-Seq, PC-3-KQ cells",-1.6793
same,SERPINB4 Change (KQ-Control vs KQ-NTZ),"RNA-Seq, PC-3-KQ cells",DOWN
same,SERPIND1 Change (KQ-Control vs KQ-NTZ),"RNA-Seq, PC-3-KQ cells",DOWN
same,SERPIND1 logFC (KQ-Control vs KQ-NTZ),"RNA-Seq, PC-3-KQ cells",-1.1652
same,SGK1 Change (KQ-Control vs KQ-NTZ),"RNA-Seq, PC-3-KQ cells",DOWN
same,SGK1 logFC (KQ-Control vs KQ-NTZ),"RNA-Seq, PC-3-KQ cells",-0.7813
same,SHISA3 Change (KQ-Control vs KQ-NTZ),"RNA-Seq, PC-3-KQ cells",DOWN
same,SHISA3 logFC (KQ-Control vs KQ-NTZ),"RNA-Seq, PC-3-KQ cells",-0.8421
same,SLC22A4 Change (KQ-Control vs KQ-NTZ),"RNA-Seq, PC-3-KQ cells",DOWN
same,SLC22A4 logFC (KQ-Control vs KQ-NTZ),"RNA-Seq, PC-3-KQ cells",-0.8073
same,SLC26A9 Change (KQ-Control vs KQ-NTZ),"RNA-Seq, PC-3-KQ cells",DOWN
same,SLC26A9 logFC (KQ-Control vs KQ-NTZ),"RNA-Seq, PC-3-KQ cells",-0.6605
same,SLC45A2 Change (KQ-Control vs KQ-NTZ),"RNA-Seq, PC-3-KQ cells",DOWN
same,SLC45A2 logFC (KQ-Control vs KQ-NTZ),"RNA-Seq, PC-3-KQ cells",-0.7358
same,SLITRK5 Change (KQ-Control vs KQ-NTZ),"RNA-Seq, PC-3-KQ cells",DOWN
same,SLITRK5 logFC (KQ-Control vs KQ-NTZ),"RNA-Seq, PC-3-KQ cells",-0.708
same,SVEP1 Change (KQ-Control vs KQ-NTZ),"RNA-Seq, PC-3-KQ cells",DOWN
same,SVEP1 logFC (KQ-Control vs KQ-NTZ),"RNA-Seq, PC-3-KQ cells",-1.4829
same,TCN1 Change (KQ-Control vs KQ-NTZ),"RNA-Seq, PC-3-KQ cells",DOWN
same,TCN1 logFC (KQ-Control vs KQ-NTZ),"RNA-Seq, PC-3-KQ cells",-0.7528
same,TENM4 Change (KQ-Control vs KQ-NTZ),"RNA-Seq, PC-3-KQ cells",DOWN
same,TENM4 logFC (KQ-Control vs KQ-NTZ),"RNA-Seq, PC-3-KQ cells",-0.7441
same,TIMM8A Change (KQ-Control vs KQ-NTZ),"RNA-Seq, PC-3-KQ cells",DOWN
same,TNF Change (KQ-Control vs KQ-NTZ),"RNA-Seq, PC-3-KQ cells",DOWN
same,TNF logFC (KQ-Control vs KQ-NTZ),"RNA-Seq, PC-3-KQ cells",-0.6786
same,TNFRSF6B Change (KQ-Control vs KQ-NTZ),"RNA-Seq, PC-3-KQ cells",DOWN
same,TNFRSF6B logFC (KQ-Control vs KQ-NTZ),"RNA-Seq, PC-3-KQ cells",-0.5861
same,TNFRSF11B Change (KQ-Control vs KQ-NTZ),"RNA-Seq, PC-3-KQ cells",DOWN
same,TNFRSF11B logFC (KQ-Control vs KQ-NTZ),"RNA-Seq, PC-3-KQ cells",-2.1243
same,TSPAN18 Change (KQ-Control vs KQ-NTZ),"RNA-Seq, PC-3-KQ cells",DOWN
same,TSPAN18 logFC (KQ-Control vs KQ-NTZ),"RNA-Seq, PC-3-KQ cells",-0.7268
same,TTC30A Change (KQ-Control vs KQ-NTZ),"RNA-Seq, PC-3-KQ cells",DOWN
same,TTC30A logFC (KQ-Control vs KQ-NTZ),"RNA-Seq, PC-3-KQ cells",-0.7519
same,TTC30B Change (KQ-Control vs KQ-NTZ),"RNA-Seq, PC-3-KQ cells",DOWN
same,TTC30B logFC (KQ-Control vs KQ-NTZ),"RNA-Seq, PC-3-KQ cells",-0.6538
same,XKRX Change (KQ-Control vs KQ-NTZ),"RNA-Seq, PC-3-KQ cells",DOWN
same,XKRX logFC (KQ-Control vs KQ-NTZ),"RNA-Seq, PC-3-KQ cells",-0.6274
same,ZFPM2 Change (KQ-Control vs KQ-NTZ),"RNA-Seq, PC-3-KQ cells",DOWN
same,ZFPM2 logFC (KQ-Control vs KQ-NTZ),"RNA-Seq, PC-3-KQ cells",-1.4661
same,ZNF28 Change (KQ-Control vs KQ-NTZ),"RNA-Seq, PC-3-KQ cells",DOWN
same,ZNF28 logFC (KQ-Control vs KQ-NTZ),"RNA-Seq, PC-3-KQ cells",-0.6433
same,ZNF302 Change (KQ-Control vs KQ-NTZ),"RNA-Seq, PC-3-KQ cells",DOWN
same,ZNF302 logFC (KQ-Control vs KQ-NTZ),"RNA-Seq, PC-3-KQ cells",-1.2333
same,"logFC, gene ABCB11","RNA-Seq, PC-3-KQ cells, KQ-Control vs KQ-NTZ, gene ABCB11",-0.7396
same,"logFC, gene C5orf63","RNA-Seq, PC-3-KQ cells, KQ-Control vs KQ-NTZ, gene C5orf63",-1.615
same,"logFC, gene C11orf65","RNA-Seq, PC-3-KQ cells, KQ-Control vs KQ-NTZ, gene C11orf65",-0.9307
same,"logFC, gene CELF3","RNA-Seq, PC-3-KQ cells, KQ-Control vs KQ-NTZ, gene CELF3",-0.8233
same,"logFC, gene LOC107985532","RNA-Seq, PC-3-KQ cells, KQ-Control vs KQ-NTZ, gene LOC107985532",-0.9452
same,"logFC, gene MROH8","RNA-Seq, PC-3-KQ cells, KQ-Control vs KQ-NTZ, gene MROH8",-0.9801
same,"logFC, gene RLN1","RNA-Seq, PC-3-KQ cells, KQ-Control vs KQ-NTZ, gene RLN1",-1.0231
same,"logFC, gene RP1L1","RNA-Seq, PC-3-KQ cells, KQ-Control vs KQ-NTZ, gene RP1L1",-0.9422
same,"logFC, gene SAXO2","RNA-Seq, PC-3-KQ cells, KQ-Control vs KQ-NTZ, gene SAXO2",-0.8856
same,"logFC, gene TNFAIP8L2-SCNM1","RNA-Seq, PC-3-KQ cells, KQ-Control vs KQ-NTZ, gene TNFAIP8L2-SCNM1",-0.9389
same,"logFC, gene ZNF154","RNA-Seq, PC-3-KQ cells, KQ-Control vs KQ-NTZ, gene ZNF154",-0.8416
same,"logFC, gene ZNF596","RNA-Seq, PC-3-KQ cells, KQ-Control vs KQ-NTZ, gene ZNF596",-0.9026
same,"Change (KQ-Control vs KQ-NTZ), gene ABCB11","RNA-Seq, PC-3-KQ cells, gene ABCB11",DOWN
same,"Change (KQ-Control vs KQ-NTZ), gene C5orf63","RNA-Seq, PC-3-KQ cells, gene C5orf63",DOWN
same,"Change (KQ-Control vs KQ-NTZ), gene C11orf65","RNA-Seq, PC-3-KQ cells, gene C11orf65",DOWN
same,"Change (KQ-Control vs KQ-NTZ), gene CELF3","RNA-Seq, PC-3-KQ cells, gene CELF3",DOWN
same,"Change (KQ-Control vs KQ-NTZ), gene LOC107985532","RNA-Seq, PC-3-KQ cells, gene LOC107985532",DOWN
same,"Change (KQ-Control vs KQ-NTZ), gene MROH8","RNA-Seq, PC-3-KQ cells, gene MROH8",DOWN
same,"Change (KQ-Control vs KQ-NTZ), gene RLN1","RNA-Seq, PC-3-KQ cells, gene RLN1",DOWN
same,"Change (KQ-Control vs KQ-NTZ), gene RP1L1","RNA-Seq, PC-3-KQ cells, gene RP1L1",DOWN
same,"Change (KQ-Control vs KQ-NTZ), gene SAXO2","RNA-Seq, PC-3-KQ cells, gene SAXO2",DOWN
same,"Change (KQ-Control vs KQ-NTZ), gene TNFAIP8L2-SCNM1","RNA-Seq, PC-3-KQ cells, gene TNFAIP8L2-SCNM1",DOWN
same,"Change (KQ-Control vs KQ-NTZ), gene ZNF154","RNA-Seq, PC-3-KQ cells, gene ZNF154",DOWN
same,"Change (KQ-Control vs KQ-NTZ), gene ZNF596","RNA-Seq, PC-3-KQ cells, gene ZNF596",DOWN
same,change of NTZ treatment,gene AADACL3,down
same,change of NTZ treatment,gene ABAT,up
same,change of NTZ treatment,gene ADIRF,up
same,logFC,"gene ADIRF, KQ-Control vs KQ-NTZ",0.6207
same,logFC,"gene AKR1B1, KQ-Control vs KQ-NTZ",1.237
same,change of NTZ treatment,gene AKR1C1,up
same,logFC,"gene AKR1C1, KQ-Control vs KQ-NTZ",1.37
same,change of NTZ treatment,gene AKR1C3,up
same,change of NTZ treatment,gene ANG,up
same,logFC,"gene ANG, KQ-Control vs KQ-NTZ",1.354
